Results from US20050170481A1, “Novel (d)-2-hydroxy-acid oxidase derived from microorganism and biochemical process for producing glyoxylic acid therewith” (priority 2002, published 2005).

Key:
[1] = test system: (D)-2-hydroxy-acid oxidase (enzyme of the present invention); test: Oxidase reaction activity (H2O2 / 4-AA / TOOS / POD, absorbance at 555 nm), substrate specificity; format: biochemical, Arthrobacter sp. KNK-GA1 strain; settings: for Relative activity (%): Table 2, 30° C., 100 seconds; for activity of the (D)-2-hydroxy-acid oxidase for the substrate (in words): summary of Table 1
Protocol: The reaction activity of oxidase is basically measured by adding 0.1 ml of an enzyme solution to 0.9 ml of a 100 mM phosphate buffer (pH 7) having the composition below, and measuring an increase in absorbance at a wavelength of 555 nm at 30° C. In the present invention, when 1 μmol of H2O2 is produced for 1 minute, the enzyme activity is defined as 1 unit.
The enzymatic properties of the enzyme produced in Example 6 were measured.
(§1) The enzyme activity was basically measured by reacting 1.0 ml of a reaction solution containing 10 mM of a substrate such as glycolic acid, 0.67 mM of 4-AA, 1.09 mM of TOOS, 2 U/ml of POD, and 0.1 ml of an enzyme solution in a 100 mM phosphate buffer or Tris buffer at 30° C. for 100 seconds, and then measuring an increase in absorbance at a wavelength of 555 nm.

[2] = molecular target: T1, glycolate oxidase (produced by Sigma Corporation) derived from spinach (Spinacia oleracea, UniProt P05414); test: Substrate specificity of glycolate oxidase derived from spinach; format: biochemical
T1 construct: purchased Sigma Corporation
T1 sequence (P05414 1-369): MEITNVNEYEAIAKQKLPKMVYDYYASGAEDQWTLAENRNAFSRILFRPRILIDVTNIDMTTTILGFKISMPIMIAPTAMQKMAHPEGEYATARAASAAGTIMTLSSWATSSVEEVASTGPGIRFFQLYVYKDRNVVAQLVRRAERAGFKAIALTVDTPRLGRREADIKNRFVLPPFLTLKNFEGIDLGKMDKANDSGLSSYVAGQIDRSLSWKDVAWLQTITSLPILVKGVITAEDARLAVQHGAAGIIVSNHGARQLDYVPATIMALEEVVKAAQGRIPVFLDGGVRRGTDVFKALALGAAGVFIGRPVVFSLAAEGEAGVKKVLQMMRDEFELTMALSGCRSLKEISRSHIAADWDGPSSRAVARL
Protocol: In Table 1, the activity of each enzyme for glycolic acid is […] regarded as 100%.
as §1
The activity of glycolate oxidase (produced by Sigma Corporation) derived from spinach was examined for various 2-hydroxy acid compounds, and the results were compared with the results of the enzyme of the present invention produced in Example […].

[3] = test system: lactic acid oxidase derived from soil gram-negative bacteria; settings: Appl. Biochem. Biotechnol., 56, 277-288, 1996; cited from earlier work
glycolate oxidase [4] = settings: Table 1; activity for glycolic acid regarded as 100%; J. Biochem., 16, 1373-1378, 1984; cited from earlier work
glycolate oxidase [5] = settings: Table 1; activity for glycolic acid regarded as 100%; J. Phycol., 32, 790-798, 1996; cited from earlier work
[6] = Table 1, activity for glycolic acid regarded as 100%

Compound | Relative activity (%) ([1]; Substrate 10 mM) | Relative activity (%), Spinach ([2]; Table 3, Substrate 10 mM) [%] | Relative activity (%), Enzyme of this invention ([1]; Table 3, Substrate 10 mM) [%] | Relative activity (%), Spinach [2, 6] [%] | Relative activity (%), Enzyme of this invention [1, 6] [%] | activity of the (D)-2-hydroxy-acid oxidase for the substrate (in words) [1] | activity for L-lactic acid as rate of the activity for D-lactic acid [3] [%] | Relative Activity (%), Lemna minor (glycolate oxidase [4]) [%] | Relative Activity (%), Spatoglossum pacificum (glycolate oxidase [5]) [%]
OCCO [Ethylene glycol] | 0 |  |  |  |  |  |  |  | 
O=C(O)C(O)CO (racemic) [DL-glyceric acid] | 54 | 76 | 54 |  |  |  |  |  | 
CC(C)CC(O)C(=O)O (racemic) [DL-2-hydroxyisocaproic acid] | 10 | 51 | 10 | 51 | 10 | shows activity |  |  | 
1-propanol | 0 |  |  |  |  |  |  |  | 
C[C@H](O)C(=O)O [L-lactic acid] | 0 | 81 | 0 | 81 | 0 | no activity | 57 | 60 | 26
O=CC(=O)O [Glyoxylic acid] |  |  |  | 8 | 4 | relatively low activity |  | 35 | 14
O=C(O)CCO [β-hydroxypropionic acid] | 1 |  |  |  |  |  |  |  | 
CC(O)CO (stereo not shown) [1,2-propanediol] | 0 |  |  |  |  |  |  |  | 
O=C(O)CO [Glycolic acid] | 100 | 100 | 100 | 100 | 100 | high activity |  | 100 | 100
C[C@@H](O)C(=O)O [D-lactic acid] | 82 | 0 | 82 | 0 | 82 | high activity |  | 7 | 0
CCO [Ethanol] | 0 |  |  |  |  |  |  |  | 
CC(C)C[C@H](O)C(=O)O [L-2-hydroxyisocaproic acid] | 0 | 68 | 0 | 68 | 0 | no activity |  | 30 | 77
CCCC(O)C(=O)O (racemic) [DL-2-hydroxyvaleric acid] | 32 | 70 | 32 | 70 | 32 |  |  | 52 | 91
OCC(O)CO [Glycerin] | 0 |  |  |  |  |  |  |  | 
CCCCC(O)C(=O)O (racemic) [DL-2-hydroxycaproic acid] | 7 | 29 | 7 | 29 | 7 |  |  | 13 | 
O=C(O)CC(O)C(=O)O (racemic) [DL-malic acid] | 0 |  |  |  |  |  |  |  | 
CCC(O)C(=O)O (racemic) [DL-2-hydroxybutyric acid] | 42 | 71 | 42 | 71 | 42 |  |  | 57 | 55
CO [Methanol] | 0 |  |  |  |  |  |  |  | 
CC(C)O [2-propanol] | 0 |  |  |  |  |  |  |  | 
